From patent US7008944B2, “Antidepressant azaheterocyclylmethyl derivatives of 2,3-dihydro-1,4-Dioxino[2,3-f]quinoxaline” (Wyeth, priority 2001, dated 2006) come the findings set out here.

The target of one series is T1, serotonin transporter (Rattus norvegicus, UniProt P31652).
T1 construct: displace ^3H-paroxetine from male rat frontal cortical membranes; from tissue; host or cells: male rat frontal cortex membranes
Description: 3H-paroxetine displacement, serotonin transporter affinity. The class given is binding.

The target in the next series is T2, human 5-HT1A receptors (Homo sapiens, UniProt P08908).
T2 construct: expressed in transfected cells; host or cells: CHO cells
T2 sequence (P08908 1-422): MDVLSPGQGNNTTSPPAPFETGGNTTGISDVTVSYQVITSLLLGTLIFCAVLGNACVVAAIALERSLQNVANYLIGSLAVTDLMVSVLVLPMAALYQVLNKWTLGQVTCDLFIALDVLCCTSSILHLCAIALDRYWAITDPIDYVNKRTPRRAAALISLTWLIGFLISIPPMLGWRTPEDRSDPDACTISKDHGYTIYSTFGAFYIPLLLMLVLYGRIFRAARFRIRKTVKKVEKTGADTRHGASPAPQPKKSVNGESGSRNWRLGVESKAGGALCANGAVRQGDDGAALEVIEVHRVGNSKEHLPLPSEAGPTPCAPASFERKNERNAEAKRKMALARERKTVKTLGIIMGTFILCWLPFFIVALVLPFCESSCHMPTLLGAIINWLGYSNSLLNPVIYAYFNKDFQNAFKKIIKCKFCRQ
Description: [3H] 8-OHDPAT displacement, 5-HT1A receptor affinity. The class given is binding. The source says: High affinity for the serotonin 5-HT1A receptor was established by testing the claimed compound's ability to displace [^3H] 8-OHDPAT (dipropylamino-tetralin) from the 5-HT1A serotonin receptor following a modification of the procedure of Hall et al., J. Neurochem. 44, 1685 (1985) which utilizes CHO cells stably transfected with human 5-HT1A receptors.

Series [1] addresses T3, cloned human 5-HT1A receptors (Homo sapiens, UniProt P08908).
T3 construct: expressed in transfected cells
T3 sequence (P08908 1-422): T2 sequence (P08908 1-422)
As to the kind of experiment: 35S-GTPγS binding assay, 5-HT1A antagonist activity. Type of series: biochemical. Particulars: reversal of the effects of standard agonist 8-OH DPAT; for IC50: read-out: 5-HT1A Function IC50. The procedure: Antagonist activity at 5-HT1A receptors was established by using a ^35S-GTPγS binding assay similar to that used by Lazareno and Birdsall (Br. J. Pharmacol. 109: 1120, 1993), in which the test compound's ability to affect the binding of ^35S-GTPγS to membranes containing cloned human 5-HT1A receptors was determined. Agonists produce an increase in binding whereas antagonists produce no increase but rather reverse the effects of the standard agonist 8-OH DPAT. The test compound's maximum inhibitory effect is represented as the Imax, while its potency is defined by the IC50.

Like-named read-outs stand apart in the source and are kept apart here.

T1 sequence (P31652 whole entry): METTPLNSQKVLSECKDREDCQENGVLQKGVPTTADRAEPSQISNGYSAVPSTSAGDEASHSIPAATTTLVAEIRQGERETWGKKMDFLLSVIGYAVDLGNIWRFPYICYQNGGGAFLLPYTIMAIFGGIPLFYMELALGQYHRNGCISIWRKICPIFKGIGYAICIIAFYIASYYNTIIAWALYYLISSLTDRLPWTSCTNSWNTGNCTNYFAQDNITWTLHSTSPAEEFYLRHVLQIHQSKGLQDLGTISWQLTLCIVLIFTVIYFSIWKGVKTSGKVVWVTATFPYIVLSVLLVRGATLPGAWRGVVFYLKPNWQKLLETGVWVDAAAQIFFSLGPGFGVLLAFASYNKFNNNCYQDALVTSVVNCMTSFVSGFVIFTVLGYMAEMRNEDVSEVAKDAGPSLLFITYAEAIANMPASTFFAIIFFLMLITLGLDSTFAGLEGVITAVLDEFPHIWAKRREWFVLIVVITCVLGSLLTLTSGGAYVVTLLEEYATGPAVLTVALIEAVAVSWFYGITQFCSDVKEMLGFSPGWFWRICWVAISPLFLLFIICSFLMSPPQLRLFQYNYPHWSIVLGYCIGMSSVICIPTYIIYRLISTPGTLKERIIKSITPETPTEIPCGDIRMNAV

For the molecule `CCc1nc2ccc3c(c2nc1CC)OC(CN1CC=C(c2c[nH]c4ccccc24)CC1)CO3` (stereo not drawn) [Example 5, 8,9-Diethyl-2-{[4-(1H-indol-3-yl)-3,6-dihydro-1(2H)-pyridinyl]methyl}-2,3-dihydro[1,4]dioxino[2,3-f]quinoxaline], the melting point is > 120 °C (dec.). Also, the Ki on serotonin transporter amounted to 9.5 nM. The molecule further yielded a Ki at human 5-HT1A receptors of 99.2 nM. Further, in series [1], the 5-HT1A Function Imax (maximum inhibitory effect) worked out at 98% and the IC50 was 1860 nM.
Molecule `Cc1nc2ccc3c(c2nc1C)OC(CN1CC=C(c2c[nH]c4ccc(F)cc24)CC1)CO3` (stereo not drawn) [Example 4, 2-{[4-(5-Fluoro-1H-indol-3-yl)-3,6-dihydro-1(2H)-pyridinyl]methyl}-8,9-dimethyl-2,3-dihydro[1,4]dioxino[2,3-f]quinoxaline] registered a melting point of 138 to 141 °C. At serotonin transporter, this molecule registered a Ki of 1.57 nM. Besides, on human 5-HT1A receptors, the Ki worked out at 25.5 nM. Also, in series [1], the 5-HT1A Function Imax (maximum inhibitory effect) was found to be 100% and the IC50 was 389 nM.
Consider `Cc1nc2ccc3c(c2nc1C)O[C@@H](CN1CC=C(c2c[nH]c4ccccc24)CC1)CO3` [Example 3], for which the melting point lay within 153 to 155 °C. At serotonin transporter, this molecule displayed an inhibitory constant (Ki) of 1.19 nM. For the same molecule, on human 5-HT1A receptors, affinity was put at a Ki of 15.3 nM. For the same molecule, in series [1], the 5-HT1A Function Imax (maximum inhibitory effect) was 100% and the IC50 was found to be 332 nM.
As to `Fc1ccc2[nH]cc(C3=CCN(CC4COc5ccc6nccnc6c5O4)CC3)c2c1` (stereo not drawn) [Example 1, 2-{[4-(5-Fluoro-1H-indol-3-yl)-3,6-dihydro-1(2H)-pyridinyl]methyl}-2,3-dihydro[1,4]dioxino[2,3-f]quinoxaline], the melting point is > 200 °C (dec.). In addition, the Ki on serotonin transporter is 0.5 nM. Affinity on human 5-HT1A receptors was put at a Ki of 17.7 nM. Moreover, in series [1], the 5-HT1A Function Imax (maximum inhibitory effect) came to 100% and the IC50 came to 271 nM.
Turning to `CCc1nc2ccc3c(c2nc1CC)OC(CN1CC=C(c2c[nH]c4ccc(F)cc24)CC1)CO3` (stereo not drawn) [Example 6, 8,9-Diethyl-2-{[4-(5-fluoro-1H-indol-3-yl)-3,6-dihydro-1(2H)-pyridinyl]methyl}-2,3-dihydro[1,4]dioxino[2,3-f]quinoxaline], the melting point was > 120 °C (dec.). Further, at serotonin transporter (displacement of 3H-paroxetine from male rat frontal cortical membranes, read-out: 5-HT Transporter Affinity KI), the Ki amounted to 14 nM. Further, on human 5-HT1A receptors (displacement of [3H] 8-OHDPAT, CHO cells stably transfected with human 5-HT1A receptors, read-out: 5-HT1A Receptor Affinity KI), the inhibitory constant (Ki) came to 264 nM. For the same molecule, in series [1], the 5-HT1A Function Imax (maximum inhibitory effect) was 100% and the half-inhibitory concentration (IC50) came to 2240 nM.
`C1=C(c2c[nH]c3ccccc23)CCN(CC2COc3ccc4nccnc4c3O2)C1` (stereo not drawn) [Example 2, 2-{[4-(1H-Indol-3-yl)-3,6-dihydro-1(2H)-pyridinyl]methyl}-2,3-dihydro[1,4]dioxino[2,3-f]quinoxaline]: the melting point was > 220 °C (dec.). For the same molecule, the Ki on serotonin transporter came to 2.86 nM. Affinity at human 5-HT1A receptors was put at a Ki of 30 nM. Further, in series [1], the 5-HT1A Function Imax (maximum inhibitory effect) turned out to be 100% and the IC50 was determined as 203 nM.

The term Ki denotes a dissociation constant, usually derived from enzyme kinetics or from competition with a known ligand. As a reminder, the IC50 is the concentration that inhibits the measured activity by half. Broadly, the melting point is the temperature of the solid-liquid transition.
